Source: publication PMC2790607, “Finding of the Low Molecular Weight Inhibitors of Resuscitation Promoting Factor Enzymatic and Resuscitation Activity” (PLoS ONE, 2009)
In brackets after ≈: the same amount, converted by molar mass.

Test system: M. smegmatis "non-culturable" cells
Assay: not given
Type: cell-based, Mycobacterium smegmatis
Settings: MPN assay
For `N#CSc1cc(SC#N)c([N+](=O)[O-])cc1[N+](=O)[O-]` [III, 1,5-Dinitro-2,4-dithiocyanatobenzene], the “concentrations active in suppressing resuscitation of M. smegmatis” value was 0.1 to 1 µg/mL. In the case of `N#CSc1ccc(C(F)(F)F)cc1[N+](=O)[O-]` [IV, 2-Nitro-4-(trifluoromethyl)-phenylthiocyanate], the “concentrations active in suppressing resuscitation of M. smegmatis” value is reported as 0.1 to 1 µg/mL.

Test system: Laccase(1.10.3.2)
Assay: Laccase activity (pyrocatechin, OD410)
Type: biochemical
Settings: compound 4 µg/ml; control 3.6
Protocol: (§1) Alcoholdehydrohenase(1.1.1.1) activity: ADH was dissolved in 50 mM phospahe buffer pH 7 at the concentration 10 µg/ml. The rate of the reaction was judged by transformation of NAD^+ (1 mM) into NADH+H^+. As the substrate ethanol was used. Activity was measured by OD340. Laccase(1.10.3.2) activity: Laccase was dissolved in the 50 mM citrate-phosphate buffer, pH4.5 at concentration 9 µg/ml. Pyrocatechin was used at concentration 11 µg/ml. Activity was measured by OD410. Trypsin(3.4.21.4) activity: The enzyme at concentration 8.0 µg/ml was dissolved in 50 mM Tris-HCl buffer pH 8.0. Concentration of the substrate (N-CBz-Gly-Gly-Arg-β-naphthylamide - Sigma-Aldrich)- 11 µg/ml. Registration of the kinetic curves was made fluorimetrically - excitation wavelength - 330 nm; emission - 420 nm. (0.02 MB DOC) Click here for additional data file.
With `N#CSc1cc(SC#N)c([N+](=O)[O-])cc1[N+](=O)[O-]` [III, 1,5-Dinitro-2,4-dithiocyanatobenzene] the “τ1/2, time needed to achieve a 50% level of substrate conversion, Laccase” value was 3.6 s.

Same assay, conditions: compound 10 µg/ml; control 3.6
In the case of `N#CSc1cc(SC#N)c([N+](=O)[O-])cc1[N+](=O)[O-]` [III, 1,5-Dinitro-2,4-dithiocyanatobenzene], the “τ1/2, time needed to achieve a 50% level of substrate conversion, Laccase” value is reported as 3.5 s.

Test system: Micrococcus luteus
Assay: microbe, parasite or virus in culture
Type: cell-based
Settings: Micrococcus luteus; lowest concentration which suppresses growth; determined during 24 hours; NI = no inhibition was observed
For `N#CSc1cc(SC#N)c([N+](=O)[O-])cc1[N+](=O)[O-]` [III, 1,5-Dinitro-2,4-dithiocyanatobenzene], the MIC was 5 µg/mL (≈ 17.7 µM). Work on `N#CSc1ccc(C(F)(F)F)cc1[N+](=O)[O-]` [IV, 2-Nitro-4-(trifluoromethyl)-phenylthiocyanate] yielded an MIC of 5 µg/mL (≈ 20.1 µM).

Test system: Trypsin(3.4.21.4)
Assay: Trypsin activity (fluorimetric)
Type: biochemical
Settings: compound 4 µg/ml; control 10
Protocol: as §1
For `N#CSc1cc(SC#N)c([N+](=O)[O-])cc1[N+](=O)[O-]` [III, 1,5-Dinitro-2,4-dithiocyanatobenzene], the “τ1/2, time needed to achieve a 50% level of substrate conversion, Trypsin” value was 10 s.

Same assay, conditions: compound 10 µg/ml; control 10
In the case of `N#CSc1cc(SC#N)c([N+](=O)[O-])cc1[N+](=O)[O-]` [III, 1,5-Dinitro-2,4-dithiocyanatobenzene], the “τ1/2, time needed to achieve a 50% level of substrate conversion, Trypsin” value is reported as 10 s.

Test system: Alcoholdehydrohenase(1.1.1.1)
Assay: Alcoholdehydrogenase activity (NAD+ to NADH, OD340)
Type: biochemical
Settings: compound 4 µg/ml; control 1.7
Protocol: as §1
With `N#CSc1cc(SC#N)c([N+](=O)[O-])cc1[N+](=O)[O-]` [III, 1,5-Dinitro-2,4-dithiocyanatobenzene] the “τ1/2, time needed to achieve a 50% level of substrate conversion, Alchoholdehydrohenase” value was 1.7 s.

Same assay, conditions: compound 10 µg/ml; control 1.7
In the case of `N#CSc1cc(SC#N)c([N+](=O)[O-])cc1[N+](=O)[O-]` [III, 1,5-Dinitro-2,4-dithiocyanatobenzene], the “τ1/2, time needed to achieve a 50% level of substrate conversion, Alchoholdehydrohenase” value is reported as 1.7 s.

Test system: M. smegmatis
Assay: not given
Type: cell-based, Mycobacterium smegmatis
Settings: at 0.1–1 µg/ml (not shown)
In the case of `N#CSc1cc(SC#N)c([N+](=O)[O-])cc1[N+](=O)[O-]` [III, 1,5-Dinitro-2,4-dithiocyanatobenzene], the “growth of active cells of M. smegmatis” value is reported as “did not inhibit growth”. With `N#CSc1ccc(C(F)(F)F)cc1[N+](=O)[O-]` [IV, 2-Nitro-4-(trifluoromethyl)-phenylthiocyanate] the “growth of active cells of M. smegmatis” value was “did not inhibit growth”.

Test system: M. tuberculosis "non-culturable" cells
Assay: not given
Type: cell-based, Mycobacterium tuberculosis
Settings: 10 µg/ml, MPN assay, versus untreated resuscitating cells
With `N#CSc1cc(SC#N)c([N+](=O)[O-])cc1[N+](=O)[O-]` [III, 1,5-Dinitro-2,4-dithiocyanatobenzene] the “effect on resuscitation of M. tuberculosis "non-culturable" cells” value was “practically did not influence resuscitation”. With `N#CSc1ccc(C(F)(F)F)cc1[N+](=O)[O-]` [IV, 2-Nitro-4-(trifluoromethyl)-phenylthiocyanate] the “effect on resuscitation of M. tuberculosis "non-culturable" cells” value was “increased time which need for developing of visible growth in the MPN assay and decreased the final values of MPN”.

Same assay, conditions: inhibitor 10 µg/ml, time 0 days
With `N#CSc1cc(SC#N)c([N+](=O)[O-])cc1[N+](=O)[O-]` [III, 1,5-Dinitro-2,4-dithiocyanatobenzene] the “MPN, logarithmic transformation of cell concentration (cells/ml)” value (shortened to “MPN, logarithmic transformation”) was 3.48. With `N#CSc1ccc(C(F)(F)F)cc1[N+](=O)[O-]` [IV, 2-Nitro-4-(trifluoromethyl)-phenylthiocyanate] the “MPN, logarithmic transformation” value was 3.48.

Same assay, conditions: inhibitor 10 µg/ml, time 14 days
In the case of `N#CSc1cc(SC#N)c([N+](=O)[O-])cc1[N+](=O)[O-]` [III, 1,5-Dinitro-2,4-dithiocyanatobenzene], the “MPN, logarithmic transformation” value is reported as 3.48. For `N#CSc1ccc(C(F)(F)F)cc1[N+](=O)[O-]` [IV, 2-Nitro-4-(trifluoromethyl)-phenylthiocyanate], the “MPN, logarithmic transformation” value was 3.48.

Same assay, conditions: inhibitor 10 µg/ml, time 19 days
With `N#CSc1cc(SC#N)c([N+](=O)[O-])cc1[N+](=O)[O-]` [III, 1,5-Dinitro-2,4-dithiocyanatobenzene] the “MPN, logarithmic transformation” value was 3.86. In the case of `N#CSc1ccc(C(F)(F)F)cc1[N+](=O)[O-]` [IV, 2-Nitro-4-(trifluoromethyl)-phenylthiocyanate], the “MPN, logarithmic transformation” value is reported as 3.56.

Same assay, conditions: inhibitor 10 µg/ml, time 21 days
In the case of `N#CSc1cc(SC#N)c([N+](=O)[O-])cc1[N+](=O)[O-]` [III, 1,5-Dinitro-2,4-dithiocyanatobenzene], the “MPN, logarithmic transformation” value is reported as 4.63. In the case of `N#CSc1ccc(C(F)(F)F)cc1[N+](=O)[O-]` [IV, 2-Nitro-4-(trifluoromethyl)-phenylthiocyanate], the “MPN, logarithmic transformation” value is reported as 3.96.

Same assay, conditions: inhibitor 10 µg/ml, time 23 days
For `N#CSc1cc(SC#N)c([N+](=O)[O-])cc1[N+](=O)[O-]` [III, 1,5-Dinitro-2,4-dithiocyanatobenzene], the “MPN, logarithmic transformation” value was 4.63. In the case of `N#CSc1ccc(C(F)(F)F)cc1[N+](=O)[O-]` [IV, 2-Nitro-4-(trifluoromethyl)-phenylthiocyanate], the “MPN, logarithmic transformation” value is reported as 4.36.

Same assay, conditions: inhibitor 10 µg/ml, time 27 days
For `N#CSc1cc(SC#N)c([N+](=O)[O-])cc1[N+](=O)[O-]` [III, 1,5-Dinitro-2,4-dithiocyanatobenzene], the “MPN, logarithmic transformation” value was 5.66. For `N#CSc1ccc(C(F)(F)F)cc1[N+](=O)[O-]` [IV, 2-Nitro-4-(trifluoromethyl)-phenylthiocyanate], the “MPN, logarithmic transformation” value was 5.38.

Same assay, conditions: inhibitor 10 µg/ml, time 30 days
For `N#CSc1cc(SC#N)c([N+](=O)[O-])cc1[N+](=O)[O-]` [III, 1,5-Dinitro-2,4-dithiocyanatobenzene], the “MPN, logarithmic transformation” value was 6.38. With `N#CSc1ccc(C(F)(F)F)cc1[N+](=O)[O-]` [IV, 2-Nitro-4-(trifluoromethyl)-phenylthiocyanate] the “MPN, logarithmic transformation” value was 5.66.

Same assay, conditions: inhibitor 10 µg/ml, time 33 days
In the case of `N#CSc1cc(SC#N)c([N+](=O)[O-])cc1[N+](=O)[O-]` [III, 1,5-Dinitro-2,4-dithiocyanatobenzene], the “MPN, logarithmic transformation” value is reported as 6.38. In the case of `N#CSc1ccc(C(F)(F)F)cc1[N+](=O)[O-]` [IV, 2-Nitro-4-(trifluoromethyl)-phenylthiocyanate], the “MPN, logarithmic transformation” value is reported as 5.66.

Same assay, conditions: inhibitor 10 µg/ml, time 36 days
In the case of `N#CSc1cc(SC#N)c([N+](=O)[O-])cc1[N+](=O)[O-]` [III, 1,5-Dinitro-2,4-dithiocyanatobenzene], the “MPN, logarithmic transformation” value is reported as 6.38. With `N#CSc1ccc(C(F)(F)F)cc1[N+](=O)[O-]` [IV, 2-Nitro-4-(trifluoromethyl)-phenylthiocyanate] the “MPN, logarithmic transformation” value was 5.66.

Same assay, conditions: inhibitor 10 µg/ml, time 40 days
In the case of `N#CSc1cc(SC#N)c([N+](=O)[O-])cc1[N+](=O)[O-]` [III, 1,5-Dinitro-2,4-dithiocyanatobenzene], the “MPN, logarithmic transformation” value is reported as 6.38. In the case of `N#CSc1ccc(C(F)(F)F)cc1[N+](=O)[O-]` [IV, 2-Nitro-4-(trifluoromethyl)-phenylthiocyanate], the “MPN, logarithmic transformation” value is reported as 5.66.

Test system: not given
Assay: not given
Settings: not given
`N#CSc1cc(SC#N)c([N+](=O)[O-])cc1[N+](=O)[O-]` [III, 1,5-Dinitro-2,4-dithiocyanatobenzene] gave a melting point of 78 to 80 °C. Work on `N#CSc1ccc(C(F)(F)F)cc1[N+](=O)[O-]` [IV, 2-Nitro-4-(trifluoromethyl)-phenylthiocyanate] yielded a melting point of 78 to 81 °C.

Biological target: T1, Rpf Sm (Micrococcus luteus, UniProt O86308)
T1 construct: His-tag (inferred from the pET19b vector and the Ni2+-chelation purification); made in house; host or cells: E. coli HSM174 (DE3)
T1 sequence (O86308 42-134): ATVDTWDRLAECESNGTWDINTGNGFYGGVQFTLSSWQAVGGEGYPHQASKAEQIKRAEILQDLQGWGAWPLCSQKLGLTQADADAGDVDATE
Assay: Muralytic activity of Rpf, 4-MUF-3-NAG hydrolysis
Type: biochemical, M. luteus
Settings: pH 6.0, 3 hours at 37°C; NI = no inhibition was observed; read-out: 4-MUF-3-NAG hydrolysis IC50, Rpf Sm (converted)
Protocol: The truncated form of M.luteus Rpf (RpfSm) was used for the analysis. The truncated protein contained conserved Rpf domain and additional 20 amino acids of the gene product, corresponding to the following amino acid sequence:
To determine a muralytic activity of the recombinant Rpfs', 4-methylumbelliferyl-β-D-N, N′, N″-triacetylchitotrioside (4-MUF-3-NAG) (“Sigma”, Germany) was applied. […] A number of experiments were performed in the presence of NPT compounds, in concentration range of 0.5–10 µg/ml. After 3 hours of incubation at 37°C, 2 µl of 10 M NaOH was added and the samples were frozen and kept at −20°C. […] The intensity of fluorescence was detected by the RF-5301PC fluorimeter (“SHIMADZU”, Japan) using excitation wavelength of 364 nm and a read-out of 448 nm.
Molecule `N#CSc1cc(SC#N)c([N+](=O)[O-])cc1[N+](=O)[O-]` [III, 1,5-Dinitro-2,4-dithiocyanatobenzene] has an IC50 of 4.25 µM. With `N#CSc1ccc(C(F)(F)F)cc1[N+](=O)[O-]` [IV, 2-Nitro-4-(trifluoromethyl)-phenylthiocyanate] the IC50 was 21.4 µM.
